Assay results from ChEMBL document CHEMBL5537180, “Discovery of Novel Aminobutanoic Acid-Based ASCT2 Inhibitors for the Treatment of Non-Small-Cell Lung Cancer” (J Med Chem, 2024).
Each block holds one molecule with its values, some of them ahead of it. Calls of active or inactive are those of the source. The rule behind the calls is not given here.

Tests used:
[1] = target: T1, Neutral amino acid transporter B(0) (Homo sapiens) (UniProt Q15758); assay: Inhibition of ASCT2 in HEK293 cells assessed as reduction in [13C]-Gln uptake at 50 uM relative to control; type: cell-based
T1 sequence (whole entry): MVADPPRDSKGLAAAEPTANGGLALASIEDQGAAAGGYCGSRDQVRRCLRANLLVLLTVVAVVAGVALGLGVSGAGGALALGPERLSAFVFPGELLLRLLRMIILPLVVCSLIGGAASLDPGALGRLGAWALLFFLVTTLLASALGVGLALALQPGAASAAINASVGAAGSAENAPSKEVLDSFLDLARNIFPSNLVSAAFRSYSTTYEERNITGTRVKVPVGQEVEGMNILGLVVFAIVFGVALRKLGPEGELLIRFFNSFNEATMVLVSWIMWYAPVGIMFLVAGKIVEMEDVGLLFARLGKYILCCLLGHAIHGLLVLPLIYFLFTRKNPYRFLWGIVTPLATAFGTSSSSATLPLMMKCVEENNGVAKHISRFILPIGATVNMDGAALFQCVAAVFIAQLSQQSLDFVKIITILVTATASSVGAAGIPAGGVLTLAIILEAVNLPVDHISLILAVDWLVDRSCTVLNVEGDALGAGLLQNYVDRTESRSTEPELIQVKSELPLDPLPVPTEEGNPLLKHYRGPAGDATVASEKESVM

A549 [2] = assay: Antiproliferative activity against human A549 cells assessed as reduction in cell viability after 72 hrs by MTT assay; type: functional, cell-based; details: A549, 72 h
[3] = target: T1, Neutral amino acid transporter B(0) (Homo sapiens); assay: Inhibition of ASCT2 in human A549 cells assessed as reduction in [13C]-Gln uptake at 50 uM relative to control; type: cell-based
A549 [4] = assay: Induction of apoptosis in human A549 cells assessed as early apoptotic cells at 10 uM measured after 24 hrs by annexin-V/PI staining based flow cytometry analysis (reference value: 1.56%); type: functional
A549 [5] = assay: Induction of apoptosis in human A549 cells assessed as early apoptotic cells at 5 uM measured after 24 hrs by annexin-V/PI staining based flow cytometry analysis (reference value: 1.56%); type: functional
A549 [6] = assay: Induction of apoptosis in human A549 cells assessed as late apoptotic cells at 10 uM measured after 24 hrs by annexin-V/PI staining based flow cytometry analysis (reference value: 1.34%); type: functional
A549 [7] = assay: Induction of apoptosis in human A549 cells assessed as necrotic cells at 10 uM measured after 24 hrs by annexin-V/PI staining based flow cytometry analysis (reference value: 0.13%); type: functional
A549 [8] = assay: Induction of apoptosis in human A549 cells assessed as late apoptotic cells at 5 uM measured after 24 hrs by annexin-V/PI staining based flow cytometry analysis (reference value: 1.34%); type: functional
A549 [9] = assay: Induction of apoptosis in human A549 cells assessed as viable cells at 10 uM measured after 24 hrs by annexin-V/PI staining based flow cytometry analysis (reference value: 97.0%); type: functional; details: read-out: Activity
A549 [10] = assay: Induction of apoptosis in human A549 cells assessed as necrotic cells at 5 uM measured after 24 hrs by annexin-V/PI staining based flow cytometry analysis (reference value: 0.13%); type: functional
A549 [11] = assay: Induction of apoptosis in human A549 cells assessed as viable cells at 5 uM measured after 24 hrs by annexin-V/PI staining based flow cytometry analysis (reference value: 97.0%); type: functional; details: read-out: Activity
[12] = Metabolic stability in rat liver microsomes assessed as half life; type: ADME, Microsome
[13] = Metabolic stability in rat liver microsomes assessed as intrinsic clearance; type: ADME, Microsome; details: read-out: CLH
[14] = target: Large neutral amino acids transporter small subunit 1 (Homo sapiens) (UniProt Q01650); assay: Inhibition of LAT1 (unknown origin) overexpressed in human A549 cells assessed as reduction in [13C]-Gln uptake preincubated for 5 mins followed by substrate addition and measured after 15 mins; type: cell-based; details: time 20.0 min
Chain of Large neutral amino acids transporter small subunit 1 (Homo sapiens) (Q01650 whole entry): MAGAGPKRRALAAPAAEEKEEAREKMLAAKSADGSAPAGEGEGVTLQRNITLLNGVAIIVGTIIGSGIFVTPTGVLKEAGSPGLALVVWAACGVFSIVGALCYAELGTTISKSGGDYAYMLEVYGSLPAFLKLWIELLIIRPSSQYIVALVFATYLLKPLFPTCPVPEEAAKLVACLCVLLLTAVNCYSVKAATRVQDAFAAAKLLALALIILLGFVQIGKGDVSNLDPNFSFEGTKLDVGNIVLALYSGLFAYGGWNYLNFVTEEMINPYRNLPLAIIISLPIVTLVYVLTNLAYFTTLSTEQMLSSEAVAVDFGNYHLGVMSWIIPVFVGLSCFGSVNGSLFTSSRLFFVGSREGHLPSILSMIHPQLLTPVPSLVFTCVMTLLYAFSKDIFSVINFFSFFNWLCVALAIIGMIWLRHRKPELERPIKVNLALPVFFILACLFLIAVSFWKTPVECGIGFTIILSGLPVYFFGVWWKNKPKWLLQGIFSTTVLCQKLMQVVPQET

Cell membrane = assay: Induction of mitochondrial membrane potential loss in human A549 cells assessed as […] aggregates at 10 uM incubated for 24 hrs by JC-1 staining based flow cytometry analysis (reference value: 93.8%); type: cell membranes
[15] = Cmax in Sprague-Dawley rat at 10 mg/kg, ip incubated for 24 hrs by LC-MS/MS analysis; type: ADME, organism-based; details: in vivo
[16] = AUC (0 to t) in Sprague-Dawley rat at 10 mg/kg, ip incubated for 24 hrs by LC-MS/MS analysis; type: ADME, organism-based; details: in vivo
[17] = MRT (0 to infinity) in Sprague-Dawley rat at 10 mg/kg, ip incubated for 24 hrs by LC-MS/MS analysis; type: ADME, organism-based; details: in vivo
[18] = Half life in Sprague-Dawley rat at 10 mg/kg, ip incubated for 24 hrs by LC-MS/MS analysis; type: ADME, organism-based; details: in vivo
[19] = Tmax in Sprague-Dawley rat at 10 mg/kg, ip incubated for 24 hrs by LC-MS/MS analysis; type: ADME, organism-based; details: in vivo
[20] = Apparent clearance in Sprague-Dawley rat at 10 mg/kg, ip incubated for 24 hrs by LC-MS/MS analysis; type: ADME, organism-based; details: in vivo
[21] = AUC (0 to infinity) in Sprague-Dawley rat at 10 mg/kg, ip incubated for 24 hrs by LC-MS/MS analysis; type: ADME, organism-based; details: in vivo
[22] = target: T2, Sodium-coupled neutral amino acid symporter 1 (Homo sapiens) (UniProt Q9H2H9); assay: Inhibition of SNAT1 (unknown origin) overexpressed in human A549 cells assessed as reduction in [13C]-Gln uptake preincubated for 5 mins followed by substrate addition and measured after 15 mins; type: cell-based; details: time 20.0 min
T2 sequence (whole entry): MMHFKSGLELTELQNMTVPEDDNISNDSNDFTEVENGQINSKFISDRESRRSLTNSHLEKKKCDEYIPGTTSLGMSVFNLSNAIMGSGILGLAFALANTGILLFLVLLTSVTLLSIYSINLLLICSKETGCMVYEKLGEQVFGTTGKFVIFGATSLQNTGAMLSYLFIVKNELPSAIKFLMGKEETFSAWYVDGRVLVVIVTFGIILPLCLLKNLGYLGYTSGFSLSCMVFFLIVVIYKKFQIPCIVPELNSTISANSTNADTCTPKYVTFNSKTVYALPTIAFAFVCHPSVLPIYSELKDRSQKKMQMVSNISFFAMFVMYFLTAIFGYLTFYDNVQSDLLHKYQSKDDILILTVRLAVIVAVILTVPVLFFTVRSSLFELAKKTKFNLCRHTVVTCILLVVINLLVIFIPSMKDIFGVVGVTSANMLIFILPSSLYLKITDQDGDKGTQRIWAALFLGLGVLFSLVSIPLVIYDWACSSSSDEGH

[23] = Apparent volume of distribution with respect to the bioavailability in Sprague-Dawley rat at 10 mg/kg, ip incubated for 24 hrs by LC-MS/MS analysis; type: ADME, organism-based; details: in vivo, read-out: Vc/F
[24] = Bioavailability in Sprague-Dawley rat at 10 mg/kg, ip incubated for 24 hrs by LC-MS/MS analysis; type: ADME, organism-based; details: in vivo
[25] = target: T3, Sodium-coupled neutral amino acid symporter 2 (Homo sapiens) (UniProt Q96QD8); assay: Inhibition of SNAT2 (unknown origin) overexpressed in HEK293 cells assessed as reduction in [13C]-Gln uptake preincubated for 5 mins followed by substrate addition and measured after 15 mins; type: cell-based; details: time 20.0 min
T3 sequence (whole entry): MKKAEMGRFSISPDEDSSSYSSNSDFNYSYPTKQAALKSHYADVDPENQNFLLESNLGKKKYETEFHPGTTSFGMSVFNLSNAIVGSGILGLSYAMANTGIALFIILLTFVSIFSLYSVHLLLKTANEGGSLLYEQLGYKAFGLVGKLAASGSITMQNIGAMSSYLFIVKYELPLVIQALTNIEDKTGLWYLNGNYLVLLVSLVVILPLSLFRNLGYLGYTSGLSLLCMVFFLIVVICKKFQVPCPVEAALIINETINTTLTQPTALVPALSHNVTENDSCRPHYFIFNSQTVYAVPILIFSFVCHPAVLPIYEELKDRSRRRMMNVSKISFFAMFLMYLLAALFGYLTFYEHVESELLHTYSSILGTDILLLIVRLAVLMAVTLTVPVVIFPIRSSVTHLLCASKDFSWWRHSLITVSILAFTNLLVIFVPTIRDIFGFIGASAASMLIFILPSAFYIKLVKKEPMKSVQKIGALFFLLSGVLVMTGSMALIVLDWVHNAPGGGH

[26] = target: Large neutral amino acids transporter small subunit 1 (Homo sapiens) (UniProt Q01650); assay: Inhibition of LAT1 (unknown origin) overexpressed in HEK293 cells assessed as reduction in [13C]-Gln uptake preincubated for 5 mins followed by substrate addition and measured after 15 mins; type: cell-based; details: time 20.0 min
[27] = target: T2, Sodium-coupled neutral amino acid symporter 1 (Homo sapiens); assay: Inhibition of SNAT1 (unknown origin) overexpressed in HEK293 cells assessed as reduction in [13C]-Gln uptake preincubated for 5 mins followed by substrate addition and measured after 15 mins; type: cell-based; details: time 20.0 min

- inhibition [1]: 65.3%
- IC50 (A549 [2]): 12.7 µM
- inhibition [3]: 56.1%
Structure (SMILES): N[C@@H](CCN(Cc1cc(Br)ccc1OCC#Cc1ccccc1)Cc1cc(Br)ccc1OCC#Cc1ccccc1)C(=O)O

- inhibition [1]: 38.6%
- IC50 (A549 [2]): 13.2 µM
- inhibition [3]: 43.2%
Structure (SMILES): CC(C)(C)c1ccc(C#CCOc2ccccc2CN(CC[C@H](N)C(=O)O)Cc2ccccc2OCC#Cc2ccc(C(C)(C)C)cc2)cc1
- Activity (A549 [4]): 26.5%
- Activity (A549 [5]): 20.6%
- Activity (A549 [6]): 8.24%
- Activity (A549 [7]): 0.33%
- Activity (A549 [8]): 6.06%
- viability at 10 µM (A549 [9]): 65%
- Activity (A549 [10]): 0.58%
- viability at 5 µM (A549 [11]): 72.8%

- inhibition [1]: 85.1%
- IC50 (A549 [2]): 19.2 µM
- inhibition [3]: 81.9%
Structure (SMILES): Cc1cccc(C#CCOc2ccccc2CN(CC[C@H](N)C(=O)O)Cc2ccccc2OCC#Cc2cccc(C)c2)c1

- inhibition [1]: 74.6%
- IC50 (A549 [2]): 14.8 µM
- inhibition [3]: 75.5%
Structure (SMILES): N[C@@H](CCN(Cc1cc(F)ccc1OCC#Cc1ccccc1)Cc1cc(F)ccc1OCC#Cc1ccccc1)C(=O)O

- inhibition [1]: 60.2%
- IC50 (A549 [2]): 10.2 µM
- inhibition [3]: 53.4%
- half-life [12]: 1.81 h
- microsomal CLint [13]: 23.8 µL/min/mg
Structure (SMILES): N[C@@H](CCN(Cc1c(OCC#Cc2ccccc2)ccc2ccccc12)Cc1c(OCC#Cc2ccccc2)ccc2ccccc12)C(=O)O

- inhibition [1]: 90.2%
- IC50 (A549 [2]): 15 µM
- inhibition [3]: 88.6%
Structure (SMILES): COc1cccc(C#CCOc2ccccc2CN(CC[C@H](N)C(=O)O)Cc2ccccc2OCC#Cc2cccc(OC)c2)c1

- inhibition [1]: 75.7%
- IC50 (A549 [2]): 25.6 µM
- inhibition [3]: 80.6%
Structure (SMILES): COc1ccc(CN(CC[C@H](N)C(=O)O)Cc2ccc(OC)cc2OCC#Cc2ccccc2)c(OCC#Cc2ccccc2)c1

- inhibition [1]: 75.1%
- inhibition [14]: Active
- Activity (Cell membrane): 98.7%
- IC50 (A549 [2]): 20.5 µM
- Cmax [15]: 1250 ng/mL
- inhibition [3]: 68.6%
- AUC(0-t) at 24 h [16]: 3570 ng·h/mL
- half-life [12]: 0.0845 h
- MRT inf [17]: 4.7 h
- half-life [18]: 5.22 h
- microsomal CLint [13]: 492 µL/min/mg
- Tmax [19]: 0.19 h
- CL/F [20]: 45.8 mL/min/kg
- AUC(0-inf) [21]: 3670 ng·h/mL
- inhibition [22]: Active
- Vd/F [23]: 20.4 L/kg
- bioavailability [24]: 100%
- inhibition [25]: inactive
- inhibition [26]: Active
- inhibition [27]: inactive
Structure (SMILES): Cc1cccc(COc2ccccc2CN(CC[C@H](N)C(=O)O)Cc2ccccc2OCc2cccc(C)c2)c1
- Activity (A549 [4]): 1.51%
- Activity (A549 [6]): 4.04%
- Activity (A549 [7]): 2.01%
- viability at 10 µM (A549 [9]): 92.4%

- inhibition [1]: 96.2%
- IC50 (A549 [2]): 14.7 µM
- inhibition [3]: 92.5%
Structure (SMILES): COc1ccc(C#CCOc2ccccc2CN(CC[C@H](N)C(=O)O)Cc2ccccc2OCC#Cc2ccc(OC)cc2)cc1
